Laboratory results from ChEMBL document CHEMBL6127088, “Novel 2-aminothiazole analogues both as polymyxin E synergist and antimicrobial agent against multidrug-resistant Gram-positive bacteria” (2024).
Values after ≈ are worked out from the molar mass of the structure shown. Active and inactive are the calls of the source. The calls are words filed in the database; no cut-off is given here.

Experiments:
[1] = tested on: Cell membrane; test: Disruption of cell membrane integrity in Acinetobacter baumannii ATCC 19606 assessed as reduction in nucleoid boundaries at 4 microg/ml incubated for 1 hrs in presence of polymyxin-E by TEM analysis; type: subcellular; design: scale not given: the % may be the effect or the level left; details: dose 4.0 µg/ml
[2] = tested on: Klebsiella pneumoniae; test: Synergistic antibacterial activity against Klebsiella pneumoniae KPN 943 assessed as fractional inhibitory concentration index at 4 microg/ml incubated for 18 to 20 hrs by chequerboard assay; type: functional; details: dose 4 µg/ml; time 18-20 hrs
[3] = tested on: Acinetobacter baumannii; test: Synergistic antibacterial activity against Acinetobacter baumannii ATCC 19606 assessed as fractional inhibitory concentration index at 4 microg/ml incubated for 18 to 20 hrs by chequerboard assay; type: functional; details: dose 4 µg/ml; time 18-20 hrs
[4] = tested on: Pseudomonas aeruginosa; test: Synergistic antibacterial activity against Pseudomonas aeruginosa PAE 3887 assessed as fold change in polymyxin-E MIC incubated for 18 hrs by broth microdilution method relative to polymyxin-E alone; type: functional
[5] = tested on: Bacillus subtilis; test: Antibacterial activity against Bacillus subtilis ATCC 6633 assessed as inhibition of bacterial growth incubated for 18 hrs by broth microdilution method; type: functional
[6] = tested on: Staphylococcus aureus; test: Antibacterial activity against Staphylococcus aureus S1-1-38 assessed as inhibition of bacterial growth incubated for 18 hrs by broth microdilution method; type: functional
[7] = tested on: Klebsiella pneumoniae; test: Synergistic antibacterial activity against Klebsiella pneumoniae KPN 1617 assessed as fold change in polymyxin-E MIC incubated for 18 hrs by broth microdilution method relative to polymyxin-E alone; type: functional
[8] = tested on: Klebsiella pneumoniae; test: Antibacterial activity against Klebsiella pneumoniae KPN 1617 incubated for 18 hrs by broth microdilution method; type: functional
[9] = tested on: Klebsiella pneumoniae; test: Synergistic antibacterial activity against Klebsiella pneumoniae KPN 1617 assessed as polymyxin-E MIC at 4 microg/ml incubated for 18 hrs by broth microdilution method; type: functional; details: dose 4 µg/ml
[10] = tested on: Pseudomonas aeruginosa; test: Antibacterial activity against Pseudomonas aeruginosa ATCC 13883 incubated for 18 hrs by broth microdilution method; type: functional
[11] = tested on: Cell membrane; test: Disruption of cell membrane integrity in Acinetobacter baumannii ATCC 19606 assessed as outer membrane expansion at 4 microg/ml incubated for 1 hrs by TEM analysis; type: subcellular; details: dose 4.0 µg/ml
[12] = tested on: Acinetobacter baumannii; test: Synergistic antibacterial activity against Acinetobacter baumannii Ab 1613 assessed as polymyxin-E MIC at 4 microg/ml incubated for 18 hrs by broth microdilution method; type: functional; details: dose 4 µg/ml
[13] = tested on: Cell membrane; test: Induction of outer membrane disruption in Acinetobacter baumannii ATCC 19606 assessed as decrease in fluorescence intensity by NPN dye based fluorescence analysis; type: subcellular
[14] = tested on: Listeria monocytogenes; test: Antibacterial activity against Listeria monocytogenes assessed as inhibition of bacterial growth incubated for 18 hrs by broth microdilution method; type: functional
[15] = tested on: Pseudomonas aeruginosa; test: Synergistic antibacterial activity against Pseudomonas aeruginosa […] assessed as polymyxin-E MIC at 4 microg/ml incubated for 18 hrs by broth microdilution method; type: functional; details: dose 4 µg/ml
[16] = tested on: Pseudomonas aeruginosa; test: Antibacterial activity against Pseudomonas aeruginosa PAE 3887 incubated for 18 hrs by broth microdilution method; type: functional
[17] = tested on: Pseudomonas aeruginosa; test: Synergistic antibacterial activity against Pseudomonas aeruginosa PAE 1051 assessed as fractional inhibitory concentration index at 4 microg/ml incubated for 18 to 20 hrs by chequerboard assay; type: functional; details: dose 4 µg/ml; time 18-20 hrs
[18] = tested on: Klebsiella pneumoniae; test: Synergistic antibacterial activity against Klebsiella pneumoniae KPN 943 assessed as fold change in polymyxin-E MIC incubated for 18 hrs by broth microdilution method relative to polymyxin-E alone; type: functional
[19] = tested on: Acinetobacter baumannii; test: Synergistic antibacterial activity against Acinetobacter baumannii ATCC 19606 assessed as fold change in polymyxin-E MIC incubated for 18 hrs by broth microdilution method relative to polymyxin-E alone; type: functional
[20] = tested on: Enterococcus faecalis; test: Antibacterial activity against Enterococcus faecalis ATCC 51299 assessed as inhibition of bacterial growth incubated for 18 hrs by broth microdilution method; type: functional
[21] = tested on: Acinetobacter baumannii; test: Antibacterial activity against Acinetobacter baumannii Ab 1611 incubated for 18 hrs by broth microdilution method; type: functional
[22] = tested on: Acinetobacter baumannii; test: Antibacterial activity against Acinetobacter baumannii ATCC 19606 infected in female Balb/c mouse model assessed as increase in animal survival at 64 mg/kg, iv administered every 12 hrs and measured for 7 days; type: functional, organism-based
[23] = tested on: Staphylococcus aureus; test: Antibacterial activity against Staphylococcus aureus S1-1-33 assessed as inhibition of bacterial growth incubated for 18 hrs by broth microdilution method; type: functional
[24] = tested on: Pseudomonas aeruginosa; test: Synergistic antibacterial activity against Pseudomonas aeruginosa PAE 3887 assessed as fractional inhibitory concentration index at 4 microg/ml incubated for 18 to 20 hrs by chequerboard assay; type: functional; details: dose 4 µg/ml; time 18-20 hrs
[25] = tested on: Bacillus subtilis; test: Antibacterial activity against Bacillus subtilis 168 assessed as inhibition of bacterial growth incubated for 18 hrs by broth microdilution method; type: functional
[26] = tested on: Acinetobacter baumannii; test: Synergistic antibacterial activity against Acinetobacter baumannii ATCC 19606 infected in female Balb/c mouse model assessed as survival rate of mouse at 64 mg/kg, iv administered every 12 hrs in presence of polymyxin-E and measured for 7 days; type: functional
[27] = tested on: Cell membrane; test: Disruption of cell membrane integrity in Acinetobacter baumannii ATCC 19606 assessed as displacement of outer membrane at 4 microg/ml incubated for 1 hrs by TEM analysis; type: subcellular; details: dose 4.0 µg/ml
[28] = tested on: Klebsiella pneumoniae; test: Antibacterial activity against Klebsiella pneumoniae KPN 943 incubated for 18 hrs by broth microdilution method; type: functional
[29] = tested on: Acinetobacter baumannii; test: Synergistic antibacterial activity against Acinetobacter baumannii ATCC 19606 assessed as polymyxin-E MIC at 4 microg/ml incubated for 18 hrs by broth microdilution method; type: functional; details: dose 4 µg/ml
[30] = tested on: Mycolicibacterium smegmatis; test: Antibacterial activity against Mycobacterium smegmatis MC 2155 assessed as inhibition of bacterial growth incubated for 18 hrs by broth microdilution method; type: functional
[31] = tested on: Cell membrane; test: Disruption of cell membrane integrity in Acinetobacter baumannii ATCC 19606 assessed as cellular damage at 4 microg/ml incubated for 1 hrs by TEM analysis; details: dose 4.0 µg/ml
[32] = tested on: Klebsiella pneumoniae; test: Antibacterial activity against Klebsiella pneumoniae SIPI-KPN-1712 incubated for 18 hrs by broth microdilution method; type: functional
[33] = tested on: Staphylococcus aureus; test: Antibacterial activity against methicillin-resistant Staphylococcus aureus ATCC 43300 assessed as inhibition of bacterial growth at 0.5 to 1 microg/ml incubated for 0 to 8 hrs by time-kill assay; type: functional, organism-based; details: dose 0.5-1 µg/ml, time 0-8 hrs
[34] = tested on: Acinetobacter baumannii; test: Antibacterial activity against Acinetobacter baumannii Ab 1613 incubated for 18 hrs by broth microdilution method; type: functional
[35] = tested on: Lactiplantibacillus plantarum; test: Antibacterial activity against Lactobacillus plantarum assessed as inhibition of bacterial growth incubated for 18 hrs by broth microdilution method; type: functional
[36] = tested on: Acinetobacter baumannii; test: Synergistic antibacterial activity against Acinetobacter baumannii Ab 1611 assessed as fold change in polymyxin-E MIC incubated for 18 hrs by broth microdilution method relative to polymyxin-E alone; type: functional
[37] = tested on: Acinetobacter baumannii; test: Synergistic antibacterial activity against Acinetobacter baumannii Ab 1613 assessed as fold change in polymyxin-E MIC incubated for 18 hrs by broth microdilution method relative to polymyxin-E alone; type: functional
[38] = tested on: Mycolicibacterium smegmatis; test: Antibacterial activity against Mycobacterium smegmatis ATCC 704 assessed as inhibition of bacterial growth incubated for 18 hrs by broth microdilution method; type: functional
[39] = tested on: Staphylococcus aureus; test: Antibacterial activity against methicillin-resistant Staphylococcus aureus ATCC 43300 assessed as inhibition of bacterial growth at 0.5 to 1 microg/ml measured between 8 to 24 hrs by time-kill assay; type: functional, organism-based; details: dose 0.5-1 µg/ml, time 8-24 hrs
[40] = tested on: Acinetobacter baumannii; test: Antimicrobial activity against Acinetobacter baumannii ATCC 19606 incubated for 18 hrs by broth microdilution method; type: functional

C/C(=N\Nc1ccccn1)c1csc(Nc2cc(F)cc(C(F)(F)F)c2)n1
Activity [1]: 100% | fractional inhibitory concentration index (FICI) [2]: 0.062 | fractional inhibitory concentration index (FICI) [3]: 0.094 | fold change (FC) [4]: 16 | MIC [5]: 2 µg/mL (≈ 5.06 µM) | MIC [6]: 0.5 µg/mL (≈ 1.26 µM) | fold change (FC) [7]: 16 | MIC [8]: > 128 µg/mL | MIC [9]: 0.5 µg/mL | MIC [10]: > 128 µg/mL | Activity [11]: Active | MIC [12]: 0.125 µg/mL | Activity [13]: Active | MIC [14]: 4 µg/mL (≈ 10.1 µM) | MIC [15]: 1 µg/mL | MIC [16]: > 128 µg/mL | fractional inhibitory concentration index (FICI) [17]: 0.281 | fold change (FC) [18]: 32 | fold change (FC) [19]: 16 | MIC [20]: 2 µg/mL (≈ 5.06 µM) | MIC [21]: > 128 µg/mL | Activity [22]: inactive | MIC [23]: 2 µg/mL (≈ 5.06 µM) | fractional inhibitory concentration index (FICI) [24]: 0.094 | MIC [25]: 1 µg/mL (≈ 2.53 µM) | survival at 64 mg/kg [26]: 100% | Activity [27]: Active | MIC [28]: > 128 µg/mL | MIC [29]: 0.031 µg/mL | MIC [30]: 1 µg/mL (≈ 2.53 µM) | Activity [31]: Active | MIC [32]: > 128 µg/mL | Activity [33]: Active | MIC [34]: > 128 µg/mL | MIC [35]: 1 µg/mL (≈ 2.53 µM) | fold change (FC) [36]: 16 | fold change (FC) [37]: 4 | MIC [38]: 1 µg/mL (≈ 2.53 µM) | Activity [39]: inactive | MIC [40]: 128 µg/mL (≈ 324 µM)
